Results on twelve molecules are retold here after paper PMC3990705, “A p38 Substrate-Specific MK2-EGFP Translocation Assay for Identification and Validation of New p38 Inhibitors in Living Cells: A Comprising Alternative for Acquisition of Cellular p38 Inhibition Data” (PLoS ONE, 2014).

Read-outs that look alike come from different tables or passages of the source.

In one data set the target is T1, p38 MAPK (Homo sapiens, UniProt Q16539).
T1 construct: endogenous in cells; host or cells: U2OS-MK2-EGFP-clone-RA#2
The data set can be described thus: MK2-EGFP translocation assay (High Content Analysis). The class given is cell-based. Particulars: for nuc/cyt ratio at 15 nM ± SD: 15 nM compound, activated U2OS MK2-EGFP cells, N = 3; for potency towards p38 inhibition in the translocation screen: 1.5 µM, 150 nM, 15 nM, normalized to Skepinone-L. Here is the method:
Screening was performed in biological duplicates on different days and different cell line passages. For cellular screening ∼ 12.500 cells were seeded into 96-well clear tissue-culture micro-plates (Bio-One µClear, Greiner, Germany) and grown until 90% confluence. The Rac/p38 MAPK pathway was activated by exchanging normal growth media with hyperosmotic media. […] Plates were mixed thoroughly and incubated at 37°C and 5% CO2 in a humidified chamber atmosphere. After 80–90 minutes the treatment was stopped by disposing the media. Subsequently cell were fixed using 3% PFA/PBS in 1x PBS at pH 7.4 for 15 minutes and washed with PBS and PBST (0.05% Tween-20) following nuclear DNA staining using 150 ng/mL DAPI in 1xPBS/35 µg/mL RNAseA. Finally, plates were transferred in an automated cytomat incubator (Thermo Scientific, Germany) combined with a robotic plate handling device (PAA, UK) and subjected to automated image acquisition.
Images of EGFP and DAPI fluorescent cells were acquired using an Image Xpress micro XL microscope (Molecular Devices, Germany). […] On average 400 cells per well were imaged, allowing reliable statistical measures and quantification.
Automated image analysis was carried out using the MetaXpress software (Molecular Devices, Germany). Fluorescence intensity ratios were calculated using the average of the cellular MK2-EGFP fluorescence intensity (Cell: nuclear inner/outer mean intensity) of all images/sites per well. p38 activation was defined as positive when the nucleocytoplasmic MK2-fluorescence intensity ratio was below 0.7. For further analysis, the average of the mean of the entire plate was calculated and used for internal plate normalization. For quality assessment of the screening the Log-Z-score was determined. Obtained values were calculated on the normalized nucleocytoplasmic MK2-fluorescence intensity ratio (average of the mean) of respective data-points.
Image analysis and result calculations were performed as described.

Another data set addresses p38α MAPK (Homo sapiens, UniProt Q16539). The data set can be described thus: Biochemical p38 MAPK activity assay (BAA), ELISA of ATF-2 phosphorylation. The protocol:
Kinase activity assays were used for identification of p38α MAPK and JNK3 inhibitors. The experimental settings and screening procedures are previously described by Goettert et al., [28].
Briefly, the ELISA assay was performed using 96-well plates (MaxiSorp, NUNC, Germany) by measuring the activity of p38α MAPK after incubation with a candidate inhibitor. Therefore, the phosphorylation degree of activation transcription factor 2 (ATF-2) is detected by a monoclonal peroxidase conjugated antibody in a dilution of 1∶5000 (Sigma-Aldrich, Germany). This monoclonal anti-phospho-ATF-2 (Thr69/71) peroxidase-conjugated antibody reacts specifically with dually phosphorylated ATF-2, detecting neither the mono- nor the unphosphorylated kinase substrate. ATF- 2 is a natural substrate of the p38 MAPKs and JNK3, and its phosphorylation is inversely correlated with the inhibitor potency.
(In general: ELISA stands for enzyme-linked immunosorbent assay.)

In data set [1] the test system is TNFα release in human whole blood. Description: Whole blood assay (WBA), TNFα release after LPS stimulation. The class given is cell-based. As to conditions: N = 3, read-out: WBA TNFα IC50 ± SD. The protocol: For determination of inhibitor potency of the compounds by detection of TNFα release in human whole blood an in vitro assay using human whole blood stimulated with LPS for TNFα synthesis is a reliable test system for inhibitors of cytokine synthesis, especially for p38 MAP kinase inhibitors as TNFα synthesis is mainly mediated by p38 MAP kinase. Therefore, the synthesis and release of proinflammatory cytokines in human whole blood from a healthy donor is stimulated using a LPS solution (1 µg/mL, Sigma-Aldrich, Germany) after preincubation of inhibitor dilution (as described in [26]). After 2.5 hours of incubation in a 5% CO2 incubator, the stimulation is stopped and plasma is obtained by centrifugation of the whole blood, followed by TNFα readout from the plasma using a commercially available TNFα ELISA kit (R&D Systems, Germany). The blood sample was obtained with the written informed consent of the donor to participate in this study. The ethics committee (Ethik-Kommission der Medizinischen Fakultät und am Universitätsklinikum Tuebingen) state that an ethical statement is not mandatory when the researchers use their own blood/plasma for experiments. The german statutes and the Declaration of Helsinki are not aimed at experiments using samples provided by the principal investigator him or herself. In the opinion of the committee, the Declaration of Helsinki is designed to protect the patient’s interests and to avoid abuse of the patient’s material.

The next data set has as its system JNK. Also noted: method as in PMID 11717429. Particulars: cited from earlier work.
The test system of the next data set is JNK3. The data set can be described thus: Phospho-Ser63-c-Jun/JNK assay in U2OS MK2-EGFP cells. The class given is cell-based, human. As to conditions: phospho-c-Jun Ser-63 endpoint, multiplexed with MK2-EGFP assay.
For the next data set, the system named is U2OS MK2-EGFP cells. Description: Cellular viability assay (AlamarBlue). The class given is cell-based, human. As to conditions: 24 h, 15 nM–15 µM. The protocol: The cellular viability assay was performed according to standard procedures (for details see AlamarBlue manual #DAL1100, Life Technologies, Germany). Briefly, ∼ 15.000 cells of the U2OS MK2-EGFP clone-RA#2 cell line were plated in 96 well µclear plate and grown in growth media until sub-confluency. Subsequently, cells were treated with compounds in indicated concentrations for 24 h at 37°C in a humidified chamber containing 5% CO2. After compound treatment the amount of living cells was monitored microscopically and cell-viability was determined using the AlamarBlue assay. For this purpose, resazurin was added freshly to the growth media devoid of phenol red as described. The media premixed with the resazurin substrate was pre-warmed to 37°C and 200 µL were added to the pre-treated cells in the 96-well plate. Following incubation at 37°C, 5% CO2 for 4 h the fluorescence of the media was measured in a PHERAstar photometer (BMG Labtech, USA) with the filter sets: Ex: 540nm/Em: 580nm.

[2] abbreviates: inhibition of phosphorylation of ATF2, N = 3, read-out: BAA p38 IC50 ± SD.

In general, IC50 refers to the concentration at which inhibition is half-maximal.

T1 sequence (Q16539 whole entry): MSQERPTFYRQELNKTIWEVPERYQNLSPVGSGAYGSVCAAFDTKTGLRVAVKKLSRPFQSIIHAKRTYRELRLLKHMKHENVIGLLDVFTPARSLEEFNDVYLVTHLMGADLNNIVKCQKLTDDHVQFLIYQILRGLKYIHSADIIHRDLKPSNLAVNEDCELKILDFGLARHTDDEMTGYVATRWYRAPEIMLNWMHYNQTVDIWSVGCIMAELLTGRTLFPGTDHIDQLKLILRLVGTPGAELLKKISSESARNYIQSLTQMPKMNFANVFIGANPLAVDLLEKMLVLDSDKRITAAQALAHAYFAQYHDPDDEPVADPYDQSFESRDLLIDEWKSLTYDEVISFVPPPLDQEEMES
p38α MAPK, sequence (Q16539 whole entry): as above
Protocol for JNK3: Compound specificity towards p38 and JNK were analyzed in a secondary JNK activity assay detecting phosphorylated c-Jun (Ser63) as a substrate of JNK. This assay could be easily multiplexed with the MK2-EGFP assay as described by Henriksen et al. [31]. Briefly, stimulated U2OS-MK2-EGFP-clone-RA#2 cells were fixed in 96-well plates with 4% PFA/PBS, blocked and permeabilized with protein-free blocking media (Pierce, USA) in TBS with 0.1% Triton X-100. Samples were incubated overnight at 4°C with an antibody directed against phospho-c-Jun Ser63 (#9261, Cell Signaling Technology, USA) diluted 1∶150 in TBST followed by detection with an Alexa647-goat-α-rabbit (Life Technologies, Germany). After washing procedures cells were subjected to image acquisition and automated image-analysis as described.

Take `Nc1ccccc1Nc1ccc2c(c1)CCc1ccc(OC[C@H](O)CO)cc1C2=O` [LN809]: the “nuc/cyt ratio at 15 nM ± SD” value at p38 MAPK was 1,064±0,1062. Also, the half-maximal inhibitory concentration (IC50) on p38α MAPK (read-out: BAA p38 IC50 ± SD) was 10.1 nM; in data set [1] it was 47 nM.
The matching figures for `CC(C)C(C)Nc1cc(-c2[nH]c(SCCCO)nc2-c2ccc(F)cc2)ccn1` (stereo not shown) [LN949]: 1,111±0,0012, 11.7 nM and 173 nM.
Consider `CC(C)Nc1cc(-c2[nH]c(SC[C@H](O)CO)nc2-c2ccc(F)cc2)ccn1` [LN954], for which the “nuc/cyt ratio at 15 nM ± SD” value on p38 MAPK is 1,068±0,0406. Moreover, the half-maximal inhibitory concentration (IC50) came to 5.7 nM on p38α MAPK (read-out: BAA p38 IC50 ± SD) and 182 nM in data set [1].
Take `CC(C)Nc1cc(-c2[nH]c(SCCO)nc2-c2ccc(F)cc2)ccn1` [LN957]: at p38 MAPK, the “nuc/cyt ratio at 15 nM ± SD” value is given as 1,158±0,0756. Besides, the IC50 on p38α MAPK (setting [2]) turned out to be 3 nM; in data set [1], 129 nM.
With `O=C(Nc1cc(Nc2ccc3c(c2)CCc2ccc(OCCN4CCOCC4)cc2C3=O)ccc1F)c1ccoc1` [LN1311], the “nuc/cyt ratio at 15 nM ± SD” value on p38 MAPK was 1,088±0,0781. For the same molecule, the IC50 is 1.1 nM on p38α MAPK (read-out: BAA p38 IC50 ± SD) and 106 nM in data set [1].
For `CNC(=O)c1ccc2c(c1)C(=O)c1ccc(Nc3ccc(F)cc3F)cc1CC2` [LN1496], on p38 MAPK, the “nuc/cyt ratio at 15 nM ± SD” value was 1,088±0,0231. Also, the half-inhibitory concentration (IC50) amounted to 3.2 nM on p38α MAPK (read-out: BAA p38 IC50 ± SD) and 37 nM in data set [1].
In the case of `O=C(Nc1cc(Nc2ccc3c(c2)CCc2ccc(OCCN4CCOCC4)cc2C3=O)c(F)cc1F)c1ccccc1` [LN1503], at p38 MAPK, the “nuc/cyt ratio at 15 nM ± SD” value is listed as 1,057±0,0332. In addition, the IC50 at p38α MAPK (read-out: BAA p38 IC50 ± SD) stood at 1.3 nM; in data set [1], 221 nM.
Take `O=C(Nc1cc(Nc2ccc3c(c2)CCc2ccc(OCCN4CCOCC4)cc2C3=O)c(F)cc1F)c1ccsc1` [LN1637]: the “nuc/cyt ratio at 15 nM ± SD” value on p38 MAPK is 1,206±0,0326. The IC50 was found to be 0.5 nM on p38α MAPK (setting [2]); 5 nM at p38α MAPK (summary of Table 1, read-out: BAA, IC50); 6 nM in data set [1].
Consider `O=C(NCC(O)CO)c1ccc2c(c1)C(=O)c1ccc(Nc3cc(NC(=O)c4ccsc4)c(F)cc3F)cc1CC2` (stereo not shown) [LN1878], for which the “nuc/cyt ratio at 15 nM ± SD” value at p38 MAPK is recorded as 1,211±0,1416. Besides, the IC50 on p38α MAPK (read-out: BAA p38 IC50 ± SD) turned out to be 1.9 nM.
In the case of `CC(C)Sc1nc(-c2ccc(F)cc2)c(-c2ccnc(NC3CCOCC3)c2)[nH]1` [RN4296], on p38 MAPK, the “nuc/cyt ratio at 15 nM ± SD” value is given as 1,288±0,2483 and the “potency towards p38 inhibition in the translocation screen” value is on record as “most potent compound towards p38 inhibition”. Moreover, the half-maximal inhibitory concentration (IC50) on p38α MAPK (read-out: BAA p38 IC50 ± SD) was determined as 3.7 nM.
Take `Oc1c2ccccc2c2c3c(cccc13)N=N2` [SP600125]: in the data set on JNK, the “selectivity over p38” value is 300 fold. Moreover, the “inhibition of p38 and JNK3 (selectivity)” value with JNK3 was “Selective inhibition of JNK3 activity”.
As to `O=C1c2ccc(Nc3ccc(F)cc3F)cc2CCc2ccc(OC[C@H](O)CO)cc21` [Skepinone-L, reference compound], at p38 MAPK (0 µM –100 µM, living cells), the “cellular effectiveness in log-dilution experiments” value was “inhibits p38 from 10 nM –1 µM in living cells”. Moreover, the “potency towards p38 inhibition in the translocation screen” value at p38 MAPK is “outstanding potency”. Further, the “effect on nuclear export of MK2-EGFP” value on p38 MAPK (10 µM compound) is “abolishes nuclear export of MK2-EGFP”. For the same molecule, the “cytotoxic effects / cellular viability” value with U2OS MK2-EGFP cells is “do not affect cellular viability”. The half-maximal inhibitory concentration (IC50) in data set [1] turned out to be 59 nM.
